Laboratory results published in paper PMC8151276, “An Integrated Approach toward NanoBRET Tracers for Analysis of GPCR Ligand Engagement” (Molecules, 2021).

Target: T1, RXFP1 (Homo sapiens, UniProt Q9HBX9)
T1 construct: purchased Promega (in-house HiBiT-GPCR construct library, NanoBRET)
T1 sequence (Q9HBX9 1-757): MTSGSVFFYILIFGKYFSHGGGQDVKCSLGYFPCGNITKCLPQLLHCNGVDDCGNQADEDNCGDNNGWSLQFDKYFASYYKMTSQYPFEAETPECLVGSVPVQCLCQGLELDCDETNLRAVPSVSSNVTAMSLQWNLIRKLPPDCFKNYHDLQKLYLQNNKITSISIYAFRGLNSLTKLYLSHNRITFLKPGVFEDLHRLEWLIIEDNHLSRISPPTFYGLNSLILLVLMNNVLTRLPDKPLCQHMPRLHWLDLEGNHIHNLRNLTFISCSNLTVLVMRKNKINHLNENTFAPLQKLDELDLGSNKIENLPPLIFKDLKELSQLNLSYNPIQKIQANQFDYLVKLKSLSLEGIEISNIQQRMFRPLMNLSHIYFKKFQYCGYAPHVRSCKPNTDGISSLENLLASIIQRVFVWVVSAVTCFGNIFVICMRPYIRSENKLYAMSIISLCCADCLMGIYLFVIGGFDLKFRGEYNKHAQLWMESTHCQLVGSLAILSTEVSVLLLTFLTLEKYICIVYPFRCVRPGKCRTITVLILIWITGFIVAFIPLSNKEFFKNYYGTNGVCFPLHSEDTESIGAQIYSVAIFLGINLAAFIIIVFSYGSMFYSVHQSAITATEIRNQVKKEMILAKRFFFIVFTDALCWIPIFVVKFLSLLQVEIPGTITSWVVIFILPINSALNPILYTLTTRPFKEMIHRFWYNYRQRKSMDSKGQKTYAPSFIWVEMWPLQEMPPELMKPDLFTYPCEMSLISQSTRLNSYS
Assay: NanoBRET screen HiBiT-RXFP1 in HEK293
Assay type: binding
Method: Each tracer candidate was screened across the entire library of HiBiT-GPCR constructs using NanoBRET as the detection modality. As depicted in Figure 4A, the specificity of interactions was evaluated through decrease in BRET due to competitive displacement of a bound tracer by excess parental compound. Each tracer was analyzed for binding to each HiBiT-GPCR fusion in the absence and in the presence of competing parental compound. Briefly, HEK293 cells were transfected with HiBiT-GPCR constructs diluted into promoterless DNA to reduce expression and maximize translocation to the cell surface. Each tracer candidate was then screened at concentrations of 1 μM and 0.1 μM across cells expressing these fusions. Cells were treated for 1.5 h with tracer either alone or in the presence of 20 μM competing parental compound (i.e., control). BRET was measured upon addition of purified LgBiT and subsequent complementation with HiBiT genetically fused to a GPCR. The specificity of interactions was assessed through a decrease in BRET signal due to competitive displacement of the bound tracer. To further gauge the robustness of these interactions, the fold response over the control (i.e., BRETtracer/BRETcontrol) was calculated. We chose a 1.5-fold response, which translates to ≥7-fold signal over noise as the minimal threshold required to score an interaction as positive.
HiBiT-GPCR DNA constructs were diluted in 10 mM Tris pH 8 to a final concentration of 0.01 μg/μL, arrayed in 96-well plates and stored at −20 °C. For transfection, HEK293 cells were suspended in Opti-MEM (without phenol red) supplemented with 2% fetal bovine serum (Seradigm) and 100 units/mL penicillin–streptomycin (Gibco) at a final concentration of 220,000 cells/mL and dispensed into white 96-well plates at 90 μL/well. Subsequent transfections and screens were carried using an Agilent Bravo Automated Liquid Handling Platform. First, the 96-well HiBiT DNA arrays were diluted 25-fold in Opti-MEM (without serum or phenol red) to a final concentration of 0.0004 μg/μL and 20 μL of the diluted DNAs were transferred into new 96-well plates. Next, promoterless carrier DNA (1 μg/μL) was diluted 25-fold (0.04 μg/μL) and then dispensed into the diluted arrays at 20 μL/well. Following brief mixing, Viafect transfection reagent (Promega) diluted 16-fold into Opti-MEM was dispensed into the plates at 40 μL/well. After mixing by pipetting, plates were incubated for 10 min on the pipetting station deck. The DNA-transfection reagent complexes were then added to plates containing cells. To facilitate the screen, 10 μL of DNA-transfection reagent complexes were added in duplicates to the top 4 and bottom 4 rows, resulting in two identical 48-well arrays per plate. Plates with transfected cells were incubated for 18–20 h at 37 °C/5% CO2. A screen of each tracer across the entire library using two different concentrations requires duplicate plates of transfected cells. Depending on the number of tracers being screened, transfections can be scaled up using the same ratios. The next day, for each tracer, four 20× screening solutions in tracer dilution buffer (Promega) were prepared: two duplicates at final concentration of 20 μM and two duplicates at a final concentration of 2 μM. […] The four resulting solutions were diluted 4-fold in Opti-MEM without serum or phenol red to generate 5× solutions (5 µM and 0.5 µM tracer +/− 100 μM competing compound). To screen the library, a BioTek MultiFlo FX liquid dispenser was used to dispense 22.5 µL of tracer solution to the top 4 rows and 22.5 µL tracer + competing compound solution to the 4 bottom rows. Plates were briefly mixed on an orbital shaker and incubated for 1.5 h at room temperature. […] Plates were briefly mixed on an orbital shaker and incubated for 15 min to allow complementation.

SMILES | NanoBRET Fold Response (RXFP1, tracer 0.1μM) | NanoBRET Fold Response (RXFP1, tracer 1μM) | also measured
CCOC(=O)c1cc(C#N)c(N2CCC(C(=O)NS(=O)(=O)Cc3ccccc3/C=C/C(=O)NCCNC(=O)CCc3ccc4n3[B-](F)(F)[N+]3=C(c5ccc[nH]5)C=CC3=C4)CC2)nc1C [AZD1283-1-NB590] |  |  | NanoBRET Fold Response (RXFP1, 0.1μM): 1.16; NanoBRET Fold Response (RXFP1, 1μM): 0.49
N#CN=C(NCCCOc1cccc(CN2CCCCC2)c1)NCCNC(=O)CCOCCOCCOCCOCCNC(=O)CCc1ccc2n1[B-](F)(F)[N+]1=C(c3ccc[nH]3)C=CC1=C2 [Aminopotentidine-2-NB590] | 0.79 | 1.28 | 
CN(C)CCC=C1c2ccccc2CCc2ccc(C(=O)NCCNC(=O)CCOCCOCCOCCOCCNC(=O)CCc3ccc4n3[B-](F)(F)[N+]3=C(c5ccc[nH]5)C=CC3=C4)cc21 [Amitriptyline-b-2-NB590] |  |  | NanoBRET Fold Response (tracer at 0.1μM): 0.90; NanoBRET Fold Response (tracer at 1μM): 1.13
COc1ccc2c(n1)c(CCNC(C)=O)cn2CCNC(=O)CCc1ccc2n1[B-](F)(F)[N+]1=C(c3ccc[nH]3)C=CC1=C2 [Azamelatonin-1-NB590] |  |  | NanoBRET Fold Response (0.1μM tracer): 1.38; NanoBRET Fold Response (1μM tracer): 1.20
COc1ccc2[nH]c(-c3ccc(CNC(=O)CCOCCOCCOCCOCCNC(=O)CCc4ccc5n4[B-](F)(F)[N+]4=C(c6ccc[nH]6)C=CC4=C5)cc3)c(CCNC(C)=O)c2n1 [AzomelatoninICO9-2-NB590] |  |  | NanoBRET Fold Response (0.1μM tracer): 1.23; NanoBRET Fold Response (1μM tracer): 1.24
O=C(CCOCCOCCOCCOCCNC(=O)CCc1ccc2n1[B-](F)(F)[N+]1=C(c3ccc[nH]3)C=CC1=C2)NCCCN1CCN(C2=Nc3cc(Cl)ccc3Nc3ccccc32)CC1 [Clozapine-a-2-NB590] |  |  | NanoBRET Fold Response (RXFP1, 0.1μM tracer): 1.12; NanoBRET Fold Response (RXFP1, 1μM tracer): 1.23
CN1CCN(C2=Nc3cc(Cl)ccc3Nc3ccc(CNC(=O)CCOCCOCCOCCOCCNC(=O)CCc4ccc5n4[B-](F)(F)[N+]4=C(c6ccc[nH]6)C=CC4=C5)cc32)CC1 [Clozapine-b-2-NB590] |  |  | NanoBRET Fold Response (RXFP1, 0.1μM tracer): 0.90; NanoBRET Fold Response (RXFP1, 1μM tracer): 0.75
CN1CCN(C2=Nc3cc(Cl)ccc3N(CC(=O)NCCOCCOCCOCCOCCNC(=O)CCc3ccc4n3[B-](F)(F)[N+]3=C(c5ccc[nH]5)C=CC3=C4)c3ccccc32)CC1 [Clozapine-c-2-NB590] |  |  | NanoBRET Fold Response (RXFP1, 0.1μM tracer): 0.85; NanoBRET Fold Response (RXFP1, 1μM tracer): 1.27
O=C(CCOCCOCCOCCOCCNC(=O)CCc1ccc2n1[B-](F)(F)[N+]1=C(c3ccc[nH]3)C=CC1=C2)NCCCN1CCN(C2=Nc3ccccc3Oc3ccc(Cl)cc32)CC1 [Loxapine-a-2-NB590] | 0.94 | 0.80 | 
COc1ccccc1N1CCN(CCCCN2C(=O)c3ccc(CNC(=O)CCOCCOCCOCCOCCNC(=O)CCc4ccc5n4[B-](F)(F)[N+]4=C(c6ccc[nH]6)C=CC4=C5)cc3C2=O)CC1 [NAN-190-2-NB590] | 0.78 | 0.92 | 
COc1ccccc1N1CCN(CCCCN2C(=O)c3ccc(CNC(=O)CCOCCNC(=O)c4ccc(CNC(=O)CCc5ccc6n5[B-](F)(F)[N+]5=C(c7ccc[nH]7)C=CC5=C6)cc4)cc3C2=O)CC1 [NAN-190-3-NB590] | 0.88 | 0.90 | 
O=C(CCc1ccc2n1[B-](F)(F)[N+]1=C(c3ccc[nH]3)C=CC1=C2)NCc1ccc(C(=O)NCCOCCC(=O)N[C@@H]2CC[C@@]3(O)[C@H]4Cc5ccc(O)c6c5[C@@]3(CCN4CC3CC3)[C@H]2O6)cc1 [Naltrexone-3-NB590] | 1.31 | 1.24 | 
Cc1cc2c(s1)Nc1ccccc1N=C2N1CCN(CCCNC(=O)CCOCCOCCOCCOCCNC(=O)CCc2ccc3n2[B-](F)(F)[N+]2=C(c4ccc[nH]4)C=CC2=C3)CC1 [Olanzapine-a-2-NB590] | 1.25 | 0.79 | 
O=C(CCc1ccc2n1[B-](F)(F)[N+]1=C(c3ccc[nH]3)C=CC1=C2)NCc1ccc(C(=O)NCCOCCOCCNCC(O)COc2cccc3ccccc23)cc1 (centres unmarked) [Propranolol-3-NB590] |  |  | NanoBRET Fold Response (RXFP1, 0.1μM): 0.90; NanoBRET Fold Response (RXFP1, 1μM): 0.90
O=C(CCc1ccc2n1[B-](F)(F)[N+]1=C(c3ccc[nH]3)C=CC1=C2)NCCOCCOCCNC(=O)OCCOCCN1CCN(C2=Nc3ccccc3Sc3ccccc32)CC1 [Quetiapine-a-2-NB590] | 0.53 | 1.01 | 
Cc1nc2n(c(=O)c1CCN1CCC(c3noc4cc(F)ccc34)CC1)CCCC2OC(=O)NCCOCCOCCOCCOCCNC(=O)CCc1ccc2n1[B-](F)(F)[N+]1=C(c3ccc[nH]3)C=CC1=C2 (centres unmarked) [Risperidone-2-NB590] | 1.26 | 0.90 | 
CC(C)N(CC[C@H](c1ccccc1)c1cc(CCNC(=O)CCOCCOCCOCCOCCNC(=O)CCc2ccc3n2[B-](F)(F)[N+]2=C(c4ccc[nH]4)C=CC2=C3)ccc1O)C(C)C [Tolterodine-2-NB590] | 1.11 | 0.81 | 
CC(C)N(CC[C@H](c1ccccc1)c1cc(CCNC(=O)c2ccc(CNC(=O)CCc3ccc4n3[B-](F)(F)[N+]3=C(c5ccc[nH]5)C=CC3=C4)cc2)ccc1O)C(C)C [Tolterodine-BZ-NB590] | 1.12 | 1.23 | 
CCCn1c(=O)c2[nH]c(-c3ccc(OCC(=O)NCCNC(=O)CCOCCNC(=O)c4ccc(CNC(=O)CCc5ccc6n5[B-](F)(F)[N+]5=C(c7ccc[nH]7)C=CC5=C6)cc4)cc3)nc2n(CCC)c1=O [XAC-3-NB590] | 1.04 | 0.93 | 
